Test results taken from patent US4963526A, “Oral insulin and a method of making the same” (priority 1988, dated 1990).

Tested on: white laboratory rats
Experiment: Blood glucose level in rats before and three hours after administration of the oral insulin preparation
Assay type: in vivo
Details: white laboratory rat, 5 units of bovine insulin, three hours after administration
Description: Two white laboratory rats, weighing 177 and 197 grams, respectively, were used in this experiment. One rat was administered a preparation of oral insulin according to the present invention containing 5 units of insulin; a formulation of the oral insulin according to the present invention containing 10 units of bovine insulin was administered to the second rat. Blood samples were drawn from each animal before and three hours after administration of the oral insulin preparation. The results given below are expressed as the percentage of the pre-experiment blood glucose level.
One white laboratory rat weighing 181 grams received a non-encapsulated preparation containing 5 units of free bovine insulin. This animal served as the control. After three hours, blood glucose level was 98.7% of the pre-experiment blood glucose level.

## free bovine insulin: non-encapsulated preparation containing 5 units of free bovine insulin; served as the control
  blood glucose level as percentage of the pre-experiment (initial) blood glucose level: 98.7 % of initial blood glucose lev
